Tests used:
[1] = system: stem cells of human epidermal keratinocytes; experiment: Count of small dividing cells with high sirtuin protein expression, with or without TLR4/MD2 (Test Examples 4-6); assay type: cell-based; conditions: for sirtuin protein expression in stem cells (count of small dividing cells with high sirtuin expression) vs negative control: 24 hours; for sirtuin induction in stem cells upon addition of TLR4/MD2: 10 ng/ml fragment plus 1 g/ml of TLR4/MD2
Procedure: A test of sirtuin induction in human epidermal keratinocytes was conducted in the same manner as in Test Example 1.
The results are shown as average count within the observed visual field.
In the meantime, similar observations were made in relation to human epidermal keratinocytes cultured in a culture broth to which 10 ng/ml of hyaluronic acid fragment (4mer) and 1 g/ml of TLR4/MD2 (TLR4 (toll-like receptor 4) protein produced by genetic recombination techniques, made by R&D Systems Inc.) were added.
A test similar to Test Example 5 was carried out, using chemically synthesized three-unit size hyaluronic acid fragments (L3mer) in place of hyaluronic acid fragment (4mer).

liver of aged rat = experiment: Liver of aged rat preserved in organ preservation solution, microscopy and bleb count (Test Example 14); conditions: for sinusoidal constriction and appearance of blebs in liver tissue slice: 100 ng/ml in organ preservation solution, SD rats aged 24 months
Procedure: The effect of action of the hyaluronic acid fragment on the liver of aged rat was investigated. The following test solutions were prepared.
(Test Solutions) • Organ preservation solution (University of Wisconsin solution: the standard solution used for organ preservation) • The above organ preservation solution, into which hyaluronic acid fragment (4mer) was dissolved to a final concentration of 100 ng/ml • The above organ preservation solution, into which hyaluronic acid fragment (L3mer) was dissolved to a final concentration of 100 ng/ml • The above organ preservation solution, into which hyaluronic acid fragment (L3mer) was dissolved to a final concentration of 100 ng/ml, then dissolving TLR4/MD2 into the above organ preservation solution, to a final concentration of 10 μg/ml.
SD rats aged 24 months (aged rats) were injected with the test solutions from the hepatic portal, and after perfusion of 7.5 ml, were preserved for six hours in the same solution at 37° C. Slices were prepared from blocks prepared by freezing of the livers embedded in OCT compound, and were subjected to microscope examination.
Prior to preservation, distinct sinusoids could be observed. […] Blebs (bubbles) that appear in ischemic liver tissue arise as a result of an activation of Ca ion-dependent proteolytic enzymes and a disorder of the cytoskeletal system, in which lowered ATP levels due to ischemia lead to effusion of Ca ions from the mitochondria to the cellular cytoplasm. In the course of passing through these changes, the liver cells experience cell death. Such changes have been confirmed to occur in clinical conditions such as pharmaceutical toxicity, aging, and the like, and in concanavalin A-induced liver damage.

[2] = system: human large intestine epithelial cells (HT29 cells); experiment: Hydrogen peroxide induced aging of human large intestine epithelial cells, MTS assay (Test Examples 16-18); assay type: cell-based; conditions: for suppression of cellular aging (MTS value, OD 490 nm): hydrogen peroxide 10 μM 15 min; for suppression of cellular aging with TLR4/MD2 added (MTS): hydrogen peroxide 10 μM, 100 ng/ml plus TLR4/MD2 10 μg/ml, 3 hours
Procedure: Human large intestine epithelial cells (HT29 cells) were experienced cellular aging (decline in mitochondrial activity due to injury, or a drop in the MTS value once cell death occurs) due to stimulation by the hydrogen peroxide when treated with hydrogen peroxide, and it was investigated whether this process is affected by treatment with the hyaluronic acid fragment. Specifically, the following test was performed.
Using a DMEM culture medium (made by Wako Pure Chemical Industries, Ltd.), human large intestine epithelial cells (HT29 cells) were cultured by usual methods at 37° C. under 5% CO2. Hydrogen peroxide was added to the culture medium to a final concentration of 10 μM to bring about stimulation for a 15-minute period, and the culture broth was then transferred to DMEM culture medium containing no hyaluronic acid fragments; to DMEM culture medium containing hyaluronic acid fragment (4mer) in a final concentration of 100 ng/ml; or to DMEM culture medium containing the hyaluronic acid fragment (4mer) plus TLR4/MD2 in a final concentration of 10 μg/ml, and cultured for 3 hours.
(§1) After 3 hours had passed, an MTS assay was performed. On the basis of the action, in which MTS is converted to formazan by dehydrogenation in the mitochondria of the cell, OD 490 nm was measured to measure mitochondrial function.
Using hyaluronic acid fragment (4mer), hyaluronic acid fragment (L4mer) and hyaluronic acid fragment (L3mer) as test substances, tests similar to those of Test Example 16 were performed, except that the culture time following transfer to the culture medium containing the test substance was one hour.
Tests similar to those of Test Example 16 were performed, except for using hyaluronic acid fragment (L4mer), and hyaluronic acid fragment (L3mer) as test substances.

[3] = system: human oral epithelial cells (Ca9-22 cells); experiment: Hydrogen peroxide induced aging of human oral epithelial cells, MTS assay (Test Example 19); assay type: cell-based; conditions: hydrogen peroxide 1 μM 15 min, then 100 ng/ml for 3 hours
Procedure: It was investigated whether the process, in which mitochondrial function of human oral epithelial cells (Ca9-22 cells) declines when treated with hydrogen peroxide, is affected by treatment with the hyaluronic acid fragment. Specifically, the following test was performed.
Using a DMEM culture medium (made by Wako Pure Chemical Industries, Ltd.), human oral epithelial cells (Ca9-22 cells) were cultured by usual methods at 37° C. under 5% CO2. Hydrogen peroxide was added to the culture medium to a final concentration of 1 μM to bring about stimulation for a 15-minute period, and the culture broth was then transferred to DMEM culture medium containing no hyaluronic acid fragments; to DMEM culture medium containing hyaluronic acid fragment (L3mer) in a final concentration of 100 ng/ml; to DMEM culture medium containing hyaluronic acid fragment (4mer) in a final concentration of 100 ng/ml; or to DMEM culture medium containing 900 kDa hyaluronic acid in a final concentration of 100 ng/ml, and cultured for 3 hours.
as §1

Keratin K14 = experiment: Keratinocyte marker Keratin K14 in human epidermal keratinocytes (Test Example 22); assay type: cell-based; conditions: for Keratin K14 induction with TLR4/MD2 added: plus TLR4/MD2 1 μg/ml; for cells with high expression of Keratin K14 (immunostaining intensity): stimulated as in Test Example 1
Procedure: (§2) Human epidermal keratinocytes were stimulated in the same manner as in Test Example 1, except for using the 4mer or the L3mer as the hyaluronic acid fragment, and further adding TLR4/MD2 to a final concentration of 1 μg/ml.
The cells in each well were stained with anti keratin K14 antibody, and the immunostaining intensity was measured with an Array Scan scanning device (made by Thermo Scientific). Keratin K14 is a marker of basal layer keratinocytes.

filaggrin = experiment: Keratinocyte marker Filaggrin in human epidermal keratinocytes (Test Example 23); assay type: cell-based; conditions: for filaggrin induction with TLR4/MD2 added: plus TLR4/MD2 1 μg/ml; for cells with high expression of filaggrin (immunostaining intensity): stimulated as in Test Example 1
Procedure: as §2
The cells in each well were stained with the anti filaggrin antibody, and the immunostaining intensity was measured with an Array Scan scanning device (made by Thermo Scientific). Filaggrin, which is produced by granular layer keratinocytes, is a marker of mature keratinocytes.

[4] = then test substance for one hour

Row | Compound | sirtuin protein expression in stem cells (count of small dividing cells with high sirtuin expression) vs negative control ([1]; 0.01 ng/ml) | sirtuin induction in stem cells upon addition of TLR4/MD2 [1] | sirtuin protein expression in stem cells (count of small dividing cells with high sirtuin expression) vs negative control ([1]; 10 ng/ml) | sinusoidal constriction and appearance of blebs in liver tissue slice (liver of aged rat; six hours at 37° C.) | suppression of cellular aging (MTS value, OD 490 nm) ([2]; then 100 ng/ml for 3 hours) | suppression of cellular aging (MTS value, OD 490 nm) [2, 4] | suppression of cellular aging with TLR4/MD2 added (MTS) [2] | suppression of cellular aging (MTS, mitochondrial function) [3] | Keratin K14 induction with TLR4/MD2 added (Keratin K14) | cells with high expression of Keratin K14 (immunostaining intensity) (Keratin K14) | filaggrin induction with TLR4/MD2 added (filaggrin) | cells with high expression of filaggrin (immunostaining intensity) (filaggrin) | effect in suppressing the appearance of blebs with TLR4/MD2 added (bleb count) (liver of aged rat; 100 ng/ml plus TLR4/MD2 10 μg/ml) | condition of liver tissue slice with TLR4/MD2 added (liver of aged rat; 100 ng/ml plus TLR4/MD2 10 μg/ml, six hours at 37° C.) | effect of suppressing the appearance of blebs (bleb count per unit surface area) (liver of aged rat; 100 ng/ml, comparison L3mer vs 4mer)
1 | CC(=O)N[C@H]1[C@H](O[C@H]2[C@H](O)[C@@H](O)[C@H](O[C@H]3[C@H](O)[C@@H](CO)OC(O)[C@@H]3NC(C)=O)O[C@@H]2C(=O)O)O[C@H](CO)[C@@H](O)[C@@H]1O[C@@H]1O[C@H](C(=O)O)[C@@H](O)[C@H](O)[C@H]1O (some centres unmarked) [4mer, GlcA(-GlcNAc-GlcA)1-GlcNAc] | markedly promoted | completely inhibited | markedly promoted | sinusoidal constriction and appearance of blebs were suppressed | suppressed cellular aging | showed effect in suppressing cellular aging | inhibited by addition of TLR4/MD2 | suppress cellular aging | inhibited by addition of TLR4/MD2 | cells with high expression of Keratin K14 increased | inhibited by addition of TLR4/MD2 | cells with high expression of filaggrin increased |  |  | 
2 | CC(=O)NC1C(O[C@@H]2OC(C(=O)O)[C@@H](O)C(O)C2O)[C@H](O)C(CO)O[C@H]1O[C@@H]1C(C(=O)O)O[C@@H](OCCCN=[N+]=[N-])C(O)C1O (some centres unmarked) [L3mer] |  | substantially completely inhibited | give rise to sirtuin induction | sinusoidal constriction and appearance of blebs were suppressed | showed effect in suppressing cellular aging | showed effect in suppressing cellular aging | inhibited by the addition of TLR4/MD2 | suppress cellular aging | inhibited by addition of TLR4/MD2 | cells with high expression of Keratin K14 increased | inhibited by addition of TLR4/MD2 | cells with high expression of filaggrin increased | reduced by the addition of TLR4/MD2 | numerous blebs (bubbles) appeared | higher with L3mer treatment than with 4mer treatment

Source: US20150018305A1, “SIRTUIN INDUCER, TISSUE REPAIRING AGENT, HEPATOCYTE GROWTH FACTOR INDUCER, TISSUE HOMEOSTASIS MAINTENANCE AGENT, AND TLR4 AGONIST, HAVING HYALURONIC ACID FRAGMENT AS ACTIVE INGREDIENT” (HYALURONAN RESEARCH INSTITUTE, INC., priority 2012, published 2015)
